From patent publication US8772493B2, “Compounds having auditory protective effect” (Ajou University Industry-Academic Cooperation Foundation, priority 2010, dated 2014) come the findings set out here.

The subject of series [1] is HEI-OC1. Briefly: TUNEL assay. It counts as cell-based. The protocol: 3×10^5 cells were seeded on the 6-well, incubated, then starved for 24 hours, and treated with the drug of the present invention by conditions, and then incubated for 24 hours. The cells were fixed with addition of 4% paraformaldehyde at normal temperature for 30 minutes, then washed two times with PBS, and treated with the permeablilization solution comprising 0.1% Triton X-100 at normal temperature for 10 minutes. The cells were washed again two times with PBS, and after adding terminal deoxynucleotidyl transferase (TDT) and nucleotide mixture, incubated for one hour with blocking out the light at 37° C. After washing two times with PBS, the apoptosis of cells was examined under fluorescence microscope. For control staining of cells without apoptosis, 4,6-diamino-2-phenylindole (DAPI, Sigma) solution was used. The stained cells were analyzed using a fluorescence microscope (Carl Zeiss, Oberkochen, Germany). TUNEL-positive cells were manually counted under a 200× magnification field in triplicate.

The subject of a further series is auditory cells. Briefly: FACScan with Annexin-V and PI double staining. It is filed as cell-based. The method, then:
The degree of apoptosis was analyzed with Annexin V-FITC Apoptosis Detection kit I (BD Biosciences, San Diego, Calif.). 3×10^5 cells were seeded on 60 mm dish, incubated, then starved for 24 hours, and treated with the compounds of Examples 1 and 2 by conditions and incubated for 24 hours. After removing the culture solution, the cells were washed two times with PBS, and suspended in the binding buffer in the ratio of 1×10^6 cells/ml. 100 μl of this solution was transferred to 5 ml tube, and after addition of 5 μl of Annexin V-FITC to the tube, well mixed together, and then reacted for about 15 minutes in the dark place. Then, 400 μl of the binding buffer was added, and the cells were counted until 10,000 cells were on Becton Dicki nson FACSscan (Lysis II Ver. 1.0). The degree of apoptosis was measured depending on the expression of Annexin V-FITC from the result of FACScan flowcytometry. In addition, the degree of apoptosis was also measured under fluorescence microscope.

Another series has as its system HEI-OC1 cells. Briefly: Cell cycle analysis using FACScan. It counts as cell-based. Particulars: cisplatin plus compound. The method, then: The cells were treated with trypsin, washed with PBS, and then stained with a dye (5 mg/ml propidium iodide, 20 mg/ml RNase A) in a dark room at normal temperature for 15 minutes. The stained cells were analyzed with a flow cytometry cell sorter (Becton Dickinson).

Series [2] has as its system HEI-OC1. Briefly: Measurement of mitochondrial membrane potential (MMP), JC-1. It counts as cell-based. Particulars: cisplatin plus compound. The method, then:
The mitochondrial membrane potential (MMP) was measured using 5,5V,6,6V-tetrachloro-1,1V,3,3V-tetraethylbenzimidazolcarbocyanine iodide (JC-1; Molecular Probes) as a lipophilic cationic probe.
JC-1 is a fluorescent dye which is accumulated by mitochondria in its inside. If the function of mitochondria is normal, MMP is high and mitochondria are predominantly red. Then, if mitochondria are damaged, MMP is reduced and mitochondria are changed into green.

Series [3] concerns zebrafish (Danio rerio) embryo. Briefly: Drug toxicity in zebrafish and effect on zebrafish embryos. It is filed as in vivo. The protocol:
To identify the drug toxicity of the compound of the present invention, zebrafish (Danio rerio) embryo was treated with the compound of Example 1 by concentrations (0, 50, 100, 150, 200, 400 μM), and then cultured in the incubator at 28.5° C. for one hour, washed three times with fresh 0.3× Danieu's Solution, and then cultured at 28.5° C. for 3 hours. The embryotoxicity was identified by examining the hatching rate, organogenesis, development, etc. of embryo under a microscope (AXIO vert 200, Carl zeiss, Gottingen, Germany), and the survival rate of embryo was determined depending on whether the cardiac contractility of embryo is present or absent.
Further, to determine the general toxicity of the compound of Example 1, the influence of the compound of Example 1 on embryos of zebrafish were tested. One female and two male sexually mature zebrafish were maintained for a 14 h light/10 h dark photoperiod. Several rectangular mesh wire boxes were placed at the bottom of the aquaria to collect the eggs the following morning. The eggs were pre-treated with the compound of Example 1 (100 μg/ml) for 1 hr, after then the eggs were washed twice with sea salt 1×. […] After three washes with sea salt 1×, the zebrafish eggs were observed under a microscope.

A further series relates to zebrafish neuromast. The series can be described thus: Observation of zebrafish neuromast using fluorescent microscope (Yo-Pro-1). Particulars: cisplatin plus compound, dose-dependent. It counts as in vivo, Danio rerio. The method, then: When embryo of zebrafish (Danio rerio) wild type is on the 4th day, the drugs (compounds of Examples 1 and 2) were added to 2 ml of embryo media in 6 well, and then 5 embryos were added to each group and reacted with the drug in the incubator maintained at 28.5° C. for one hour. After reaction, embryos were washed three times with embryo media, and then placed in clean embryo media for 3 hours. After 3 hours, […] of Yo-Pro-1 (molecular probes, Oregon U.S.A) was added to embryo media, and then reacted for one hour in the place with blocking the light. After reaction, embryos were washed again three times with clean embryo media, and anesthetized with 8 μg/ml of MS222 (3-aminobenzoic aid ethyl ester, methanesulfonate salt, Sigma Chemical CO, St Louis, U.S.A) anesthetic.

Another series has as its system neuromasts of zebrafish. It is filed as in vivo. The following applies: 4 dpf larvae, 50 μM cisplatin co-treatment with compound. The method, then: To detect the apoptotic cells in the embryos, TUNEL assay was employed. […] Thereafter, the larvae were washed with PBS and fixed in 4% paraformaldehyde with 0.1% Tween 20 at room temperature for 24 h. The fixed embryos were then dehydrated, rehydrated, and treated with 60 μg/ml protease kinase (Invitrogen, USA) for 10 min. After the protease kinase treatment, the embryos were fixed in 4% paraformaldehyde in PBS with 0.1% Tween 20 again. The TUNEL staining was achieved by using an in situ apoptosis detection kit. The fixed embryos were immersed in the permeabilization buffer for 30 min on ice. The apoptotic cells were labeled by staining the embryos in a mixture of Terminal Deoxynucleotidyl Transferase (TdT) enzyme and labeling safe buffer containing Fluorescein labeled-2′-Deoxyuridine, 5′-Triphosphate, FITC-dUTP in the ratio of 1 to 9. The embryos were then incubated in a 37° C. humidified chamber for 120 min. The embryos were finally washed thoroughly by PBS in 0.1% Tween 20. The apoptotic signals were captured by a fluorescence microscope (Carl Zeiss, Oberkochen, Germany).

For another series, the system named is rat hearing. Briefly: Measurement of brainstem evoked potential hearing in rat. It counts as in vivo. Particulars: cisplatin in combination with compound (2 mM inside eardrum).

Method for rat hearing: Rats were anesthetized with a mixed anesthetic of 1:1 zoletil and rompun, and then subjected to the examination of brainstem evoked potential hearing. […] The stimulus sound was measured by lowering 13 times/sec of the alternating click sound from the strength of 75 dB HL at the ratio of 5 dB per step. The hearing threshold was defined to be a strength at which the normal wave form I is assumed on the basis of the wave form I, the frequency filter of click sound was controlled to 100-3000 Hz, and the number of total stimulus sound was 1,024.
The drug was administered inside eardrum of rats with a 26 gage needle. The brainstem evoked potential hearing was measured a total of three times on days 1, 3 and 7 after administration of the drug.

Consider `NC1(c2ccc(F)cc2)C(=O)Nc2ccccc2C1=O` (stereo not shown) [Example 1, 3-amino-3-(4-fluorophenyl)quinolin-2,4(1H,3H)-dione], for which the “apoptosis of auditory cells (TUNEL), cisplatin and compound at the same time” value with HEI-OC1 [1] (cisplatin (50 μM with Example 1, 20 μM with Example 2) and compound administered at the same time) is given as “inhibited”. Further, the “apoptosis (TUNEL positive cells) on administration of compound alone” value with HEI-OC1 [1] (compound alone) is given as “did not cause apoptosis”. Besides, the “effect of 100 μM compared to 50 μM of compound (TUNEL)” value with HEI-OC1 [1] (with cisplatin, dose-dependent manner) is “better effect”. In addition, in the series on auditory cells (50 μM of cisplatin plus compound), the “apoptosis increased by cisplatin (annexin/PI FACS), simultaneous administration of compound” value is reported as “statistically significantly inhibited”. For the same molecule, the “effect of 100 μM compared to 50 μM of compound (annexin/PI FACS)” value with auditory cells (with 50 μM cisplatin, dose-dependent manner) is “better effect”. Besides, the “cisplatin-induced increase in sub G1” value with HEI-OC1 cells is “effectively reduced”. Besides, the “cisplatin-induced mitochondria damage (loss of MMP, green fluorescence)” value in the series on HEI-OC1 [2] is recorded as “inhibited”. In series [3] (50, 100, 150, 200, 400 μM), the “drug toxicity for 7 days after incubation of zebrafish” value is “did not show the drug toxicity”. Also, in series [3] (cisplatin (50 μM) plus compound, 24 h), the “zebrafish embryos, damage caused by cisplatin” value is “rescued”. Further, the “embryotoxicity in zebrafish model” value in series [3] (even at the concentration of 400 μM) is listed as “did not show the drug toxicity”. Besides, the “neuromast including auditory hair cells disappeared by cisplatin” value in the series with zebrafish neuromast is “effectively protected”. In the series with neuromasts of zebrafish, the “TUNEL positive cells in zebrafish larvae compared to cisplatin alone” value was “reduced TUNEL positive cells”. The hearing threshold in the series with rat hearing is recorded as 25˜35 dB.
